# Assay results as given in patent US8293979B2, “Weed controller metabolism proteins, genes, thereof and use of the same” (Sumitomo Chemical Company, Limited, priority 2001, dated 2012).
# Assays:
# [1] = system: present invention protein (A1); format: in vitro ADME, Streptomyces phaeochromogenes IFO12898; conditions: E. coli JM109/pKSN657F cell suspension, compound at 100 ppm, shaking at 30° C., ethyl acetate layer, HPLC
# Description: E. coli JM109/pKSN657F was cultured overnight at 37° C. in 3 ml of TB medium containing 50 μg/ml of ampicillin. A milliliter (1 ml) of the obtained culture medium was transferred to 100 ml of TB medium containing 50 μg/ml of ampicillin and cultured at 26° C. When OD660 reached about 0.5, 5-aminolevulinic acid was added to the final concentration of 500 μM, and the culturing was continued. Thirty (30) minutes thereafter, IPTG was added to a final concentration of 1 mM, and there was further culturing for 20 hours.
# The cells were recovered from the culture medium, washed with 0.1M tris-HCl buffer (pH7.5) and suspended in 10 ml of 0.1M Tris-HCl buffer containing 1% glucose. Compound (VI) was added to the obtained cell suspension to a final concentration of 100 ppm and that was incubated with shaking at 30° C. At each of 0 hours after and 1 day after the start of shaking, 2 ml of the cell suspension were fractioned. Fifty microliters (50 μl) of 2N HCl were added to each and those were extracted with 2 ml of ethyl acetate. The obtained ethyl acetate layers were analyzed on a HPLC under reaction condition 1. Compared to the concentration of compound (VI) detected from the ethyl acetate layer prepared from the cell suspension at 0 hours after the start of shaking, the concentration of compound (VI) detected from the ethyl acetate later prepared from the cell suspension at 1 day after the start of shaking was lower. Further a peak, which was not detected from the ethyl acetate layer prepared from the cell suspension at 0 hours after the start of shaking, was detected from the ethyl acetate layer prepared from the cell suspension at 1 day after the start of shaking Mass spectrometry of the compound contained in said peak was conducted. […]
# Other than utilizing compound (VIII) instead of compound (VI), there was conducted in accordance with the method described in Example 41(6), a culturing of E. coli JM109/pKSN657F, preparation of the cell suspension solution, incubation with shaking of the cell suspension solution to which compound (VIII) was added, reagent preparation from the cell suspension solution and HPLC analysis of the reagents. Compared to the concentration of compound (VIII) detected from the ethyl acetate layer prepared from the cell suspension at 0 hours after the start of shaking, the concentration of compound (VIII) detected from the ethyl acetate layer prepared from the cell suspension at 1 day after the start of shaking was lower. Further two peaks, which were not detected from the ethyl acetate layer prepared from the cell suspension at 0 hours after the start of shaking, were detected from the ethyl acetate layer prepared from the cell suspension at 1 day after the start of shaking Mass spectrometry of the compounds contained in said peaks were conducted. […]
# [2] = system: present invention protein (A11); assay: Metabolism of compound (X) by the present invention protein (A11), E. coli JM109/pKSN849AF cell suspension; format: in vitro ADME, Streptomyces nogalator IFO13445; conditions: compound at 25 ppm, shaking at 30° C., fractioned at 0 hours and 4 days, ethyl acetate layer, HPLC
# Description: Each of E. coli JM109/pKSN849AF and E. coli JM109/pKSN2 was cultured overnight at 37° C. in 3 ml of TB culture containing 50 μg/ml of ampicillin. A milliliter (1 ml) of the obtained culture mediums was transferred to 100 ml of TB medium containing 50 μg/ml of ampicillin and cultured at 26° C. When OD660 reached about 0.5, 5-aminolevulinic acid was added to the final concentration of 500 μM, and the culturing was continued. Thirty (30) minutes thereafter, IPTG was added to a final concentration of 1 mM, and there was further culturing for 18 hours.
# The cells were recovered from the culture medium, washed with 0.1M tris-HCl buffer (pH7.5) and suspended in 10 ml of 0.1M Tris-HCl buffer containing 1% glucose. […] The obtained ethyl acetate layers were analyzed on a HPLC under reaction condition 1. Compared to the concentration of compound (X) detected from the ethyl acetate layer prepared from the JM109/pKSN2 cell suspension, the concentration of compound (X) detected from the ethyl acetate layer prepared from the JM109/pKSN849AF cell suspension was lower. Further 3 peaks, which were not detected from the ethyl acetate layer prepared from the JM109/pKSN2 cell suspension, were detected from the ethyl acetate layer prepared from the JM109/pKSN849AF cell suspension. […]
smiles,measurement,setting,value
C=CCOC(=O)C(C)(C)OC(=O)c1cc(-n2c(=O)cc(C(F)(F)F)n(C)c2=O)ccc1Cl [compound (X)],concentration of the compound detected from the cell suspension at 1 day compared to 0 hours after the start of shaking,[1],lower
same,concentration of the compound detected from the JM109/pKSN849AF cell suspension compared to the JM109/pKSN2 cell suspension,[2],lower
